Patent publication US8222008B2, “Methods and compositions for treating cancer” (The Administrators of The Tulane Educational Fund, priority 2003, dated 2012)
Where “and” joins values, the source holds several entries; their conditions need not be identical. Equal values may be shown once.

How the values were obtained:
normal fibroblasts = experiment: Apoptosis after lysosomal cystine loading, CaspACE assay (FIG. 1); assay type: cell-based, human; details: 0.5 mM CDME 1 hour pretreatment, then TNF-a or UV, 16 hours in CDME-containing medium; control rate 7.2+/−1.3%
Experimental: 1. The CaspACE Assay • CaspACE (Promega) is an FITC-conjugated cell-permeable form of the pan-caspase inhibitor zVAD-Fmk, which binds to activated caspase(s). Cells were incubated in FITC-VAD-Fmk-containing medium (10 μM for 30 minutes at 37° C.), washed, and then fixed in 10% buffered formalin (30 minutes at room temperature) before analysis. The cells were visually enumerated by fluorescence microscopy, scoring a minimum of five fields (250 to 300 cells) for fluorescence in triplicate followed by counting all cells in the same field by light microscopy, with a minimum of 750 cells scored per condition. The apoptosis rate is the total number of cells that fluoresce divided by the total cells in the field.
Normal fibroblast lysosomes were loaded with cystine by the addition of 0.5 mM cystine dimethylester (CDME, Sigma) to normal culture medium for 1 hour before treatment (Pisoni, R L, et al, 1992 Somat. Cell. Mol. Genet., 18:1-6). The cells were treated with apoptotic triggers, leaving CDME in the medium to prevent lysosomal cystine loss, and then analyzed for apoptosis.
The lysosomal cystine content of normal fibroblasts was also altered as follows. Normal fibroblasts also at passage 7-13 were pretreated with 0.5 mM CDME for 1 hour, increasing the cystine content of their lysosomes to the cystinotic range (0.47 to 1.95 nmol of cystine per mg of protein). […]

black mice = experiment: Toxicity study of CDME in mice; assay type: in vivo, mouse; details: intraperitoneal injection, 500 μL in PBS
Experimental: (§1) CDME was evaluated in mice for cystine generation in response to varying doses as follows: A stock solution of CDME in PBS was prepared having a concentrations of 1.8 g CDME/500 μL PBS. The stock solution was diluted to generate solutions for administration. 500 μL of diluted solutions were injected intraperitoneally into black mice (body mass ˜0.03 kg). All injections were performed in duplicate.
Mice given effective dosages of 5,000 mg CDME/kg body mass or higher died. […] The CDME-injected mice contained close to 100-fold increases in intralysosomal cystine.

liver of black mice = experiment: Liver cystine concentration after CDME injection (CBP and BCA assays); assay type: in vivo, mouse
Experimental: Intracellular lysosomal free cystine was determined using a cystine binding protein (CBP) assay (Oshima et al, 1974 J. Biol. Chem., 249:6033-6039). CBP was procured from Riverside Scientific. The assay has a sensitivity of 0.1 μM. Total cell protein was determined by a modification of the Lowry method (Lowry O. et al 1951 J. Biol. Chem., 193:265-275). Statistical analyses were performed using paired t test for means with SSPS for Windows. Results are mean+/−1.0 SD (FIG. 3).
as §1
Following administration of the solutions of Table 6, the endogenous cystine concentrations in two organs (kidney and liver) were examined for the 6 mice, i.e., the CDME-injected mice as well as black, heterozygous, and wild-type control mice. The analysis was performed using the cystine binding protein CBP assay of Example 1 and the Bicinchoninic Acid BCA assay (Pierce Biotechnology) for total protein concentration.

## COC(=O)[C@@H](N)CSSC[C@H](N)C(=O)OC [CDME, cystine dimethyl ester]
Normal fibroblasts
  apoptotic rate after exposure to CDME: 18.7+/−5.4%
Black mice
  effective dosage at which mice died: ≥ 5,000 mg CDME/kg body mass
Liver of black mice; 5,000 mg CDME/kg intraperitoneally, Mouse #1 and #2
  Liver Cystine Concentration: 230 nmol cystine/mg protein and 150 nmol cystine/mg protein
Liver of black mice; 10,000 mg CDME/kg intraperitoneally, Mouse #3
  Liver Cystine Concentration: 6.7 nmol cystine/mg protein
